Assays:
chST6GalNAc-I = biological target: T1, chST6GalNAc-I (Gallus gallus, UniProt Q92183); test: chST6GalNAc-I activity on small acceptor molecules; assay type: biochemical, chicken; conditions: α-D-galacto derivatives as acceptors
T1 construct: made in house; host or cells: insect cells
Excerpt: The inventors have previously reported the cloning, expression, and characterization of chicken ST6GalNAc-I and its use in preparative synthesis of the O-linked sialoside antigens, STn-, α(2-6)SiaT-, α(2-3)SiaT- and Di-SiaT-antigen. Blixt, O.; Allin, K.; Pereira, L.; Datta, A. and Paulson, J. C., J. Am. Chem. Soc. 2002, 124, 5739-5746. Briefly, the recombinant enzyme was expressed in insect cells and purified by CDP-sepharose affinity chromatography to generate approximately 10 U/L of cell culture.

[1] = system: antibodies in sera of metastatic breast cancer patients; test: Glycan array binding of sera of metastatic breast cancer patients; set-up: species or system human; conditions: sera diluted 1:25; for binding of antibodies from breast cancer patients to glycans: 9 metastatic breast cancer patients, IgG, IgM and IgA detected; for level of serum antibodies against the glycan in MBC patients compared to healthy individuals: 9 MBC patients vs ten healthy individuals
Method: Individual (not pooled) sera were collected from 9 patients who were diagnosed with metastatic breast cancer (MBC). Blood samples were collected before treatment, so that therapeutic intervention would not interfere with patient immune responses. One patient with breast cancer but with good prognosis (IDC, Stage 1) was also included in the study. As control, or “healthy” sera, sera from ten healthy individuals, 5 female and 5 male, with no known malignancies was collected.
Sera were diluted 1:25 with PBS containing 3% BSA, and placed on the glycan array slide in humidified chamber at room temperature for 90 min. The glycan array slide was then rinsed gently with PBS/0.05% Tween, incubated with biotinylated goat antibody against human IgG, IgM and IgA, rinsed in PBS/0.05% Tween, and incubated with streptavidin-Alexa488 fluorescent dye. Following rinses in PBS/0.05% Tween and H2O, glycan array slides were dried and scanned using the commercial DNA array scanner. […] Signal to background was typically greater 50:1 and no background subtractions were performed. Data were plotted using MS Excel software.

[2] = system: Human anti-HIV 2G12 monoclonal antibody; test: Glycan array binding of 2G12; conditions: 2G12 (30 μg/mL) pre-complexed with goat anti-human-IgG-FITC (15 μg/mL)
Excerpt: Glycan array fabrication.
Glycan Binding Protein binding assay.
Image acquisition and signal processing. […] Data were plotted using MS Excel software.

Con A = Con A (Canavalia ensiformis, UniProt P02866); conditions: printing times up to 5 hours
Method: Glycan Binding Protein binding assay. Printed slides were analyzed without any further modification of the surface. Slides were incubated in either a one step procedure with labeled proteins, or a sandwich procedure in which the bound glycan binding protein (GBP) was overlaid with labeled secondary antibodies or GBP's pre-complexed with labeled antibodies. GBP's were added at a concentration of 5-50 μg/mL in buffer (usually PBS containing 0.005-0.5% Tween-20). Secondary antibodies (10 μg/mL in PBS) were overlaid on bound GBP. GBP-antibody pre-complexes were prepared in a molar ratio of 1:0.5:0.25 (5-50 μg/mL) for GBP:2° antibody:3° antibody, respectively (15 min on ice). […] Slides were subsequently washed by successive rinses in (i) PBS-Tween (0.05%), (ii) PBS and (iii) de-ionized water, then immediately subjected to imaging.
Image acquisition and signal processing. Fluorescence intensities were detected using a ScanArray 5000 (Perkin Elmer, Boston, Mass.) confocal scanner and image analyses were carried out using ImaGene image analysis software (BioDiscovery Inc, El Segundo, Calif.).
Binding of fluorescein-labeled concanavalin A (con A) was used as a measure of ligand coupling.

T1 sequence (Q92183 whole entry): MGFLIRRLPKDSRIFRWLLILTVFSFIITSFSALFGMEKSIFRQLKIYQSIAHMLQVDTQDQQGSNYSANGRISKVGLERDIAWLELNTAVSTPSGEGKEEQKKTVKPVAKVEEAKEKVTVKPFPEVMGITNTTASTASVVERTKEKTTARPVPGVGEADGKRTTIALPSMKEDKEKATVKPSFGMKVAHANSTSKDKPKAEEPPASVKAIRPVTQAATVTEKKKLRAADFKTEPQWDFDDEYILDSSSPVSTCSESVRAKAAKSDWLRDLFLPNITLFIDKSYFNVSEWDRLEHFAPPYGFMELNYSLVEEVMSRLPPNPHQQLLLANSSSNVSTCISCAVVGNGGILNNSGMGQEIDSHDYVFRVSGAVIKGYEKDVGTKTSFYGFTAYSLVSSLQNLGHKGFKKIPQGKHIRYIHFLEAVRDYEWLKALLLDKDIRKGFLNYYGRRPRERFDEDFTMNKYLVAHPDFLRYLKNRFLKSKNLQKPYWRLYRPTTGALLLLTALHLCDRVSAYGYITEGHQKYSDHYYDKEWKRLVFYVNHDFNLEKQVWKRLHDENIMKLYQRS

Molecule | binding of antibodies from breast cancer patients to glycans [1] | other results
CC(=O)N[C@H]1C(O)O[C@H](CO)[C@H](O)[C@@H]1O (stereo partly drawn) [D-GalNAc] | – | chST6GalNAc-I activity, cpm (chST6GalNAc-I): 0 cpm; chST6GalNAc-I activity, nmol/mg x min^−1 (chST6GalNAc-I): 0.00 nmol/mg x min^−1
(Ab4GNb)3#sp1 Tri-LacNAc [glycan 9] | will also bind | –
Ab3ANb4[NNa3]Ab4Gb#sp1 GM1 [glycan 58] | bind | level of serum antibodies against the glycan in MBC patients compared to healthy individuals [1]: higher than in the healthy individuals
Ab4GNb3Ab4GNb#sp1 LacNAc-LacNAc [glycan 76] | will also bind | –
Ab4GNb3Ab4[Fa3]GNb3Ab4[Fa3]GNb#sp1 LacNAc-LeX-LeX [glycan 73] | will also bind | –
Fa2Ab3Anb3Aa4Ab4G#sp3 Globo-H [glycan 97] | bind | level of serum antibodies against the glycan in MBC patients compared to healthy individuals [1]: higher than in the healthy individuals
Fa2Ab4GNb3Ab4GNb3Ab4GNb#sp1 H-type2-LacNAc-LacNAc [glycan 107] | will also bind | –
Fa2Ab4GNb3Ab4GNb#sp1 H-type-2-LacNAc [glycan 106] | will also bind | –
GNb3Ab4GNb#sp1 GlcNAcβ3LacNAc [glycan 124] | will also bind | –
GNb3Ab4Gb#sp1 LNT-2 [glycan 123] | bind | level of serum antibodies against the glycan in MBC patients compared to healthy individuals [1]: higher than in the healthy individuals
Ma2Ma3[Ma2Ma6]Ma#sp3 [glycan 136] | – | binding of 2G12 to glycans on the array [2]: strong binding; Rel. spec. (relative binding activity of 2G12) ([2]; mannose containing glycans on the array): +++ (+++ >25,000); variation in maximal binding of con A (Con A): less than 10%
Man-9#aa Man9-aminoacid [glycan 145] | – | binding of 2G12 to glycans on the array [2]: smaller level of binding
NJa6ANa#sp2 Neu5Gc6GalNAc (STn) [glycan 155] | bind | –
NNa3Ab4GNb3Ab4GNb3Ab4GNb#sp1 3′Sialyl-tri-LacNAc [glycan 180] | will also bind | –
NNa3Ab4GNb3Ab4GNb#sp1 3′SialylDiLacNAc [glycan 179] | will also bind | –
NNa3Ab4[Fa3]GNb3Ab4GNb#sp1 SLeXLacNAc [glycan 174] | will also bind | –
NNa6ANa#sp2 6SiaβGalNAc [glycan 190] | bind | level of serum antibodies against the glycan in MBC patients compared to healthy individuals [1]: significantly higher levels
NNa6Ab4GNb3Ab4GNb#sp1 6SiaLacNAc-LacNAc [glycan 189] | will also bind | –
NNa6Ab4GNb3Ab4[Fa3]GNb3Ab4[Fa3]GNb#sp1 6Sia-LacNAc-LeX-LeX [glycan 188] | will also bind | –
Ceruloplasmine (protein, UniProt P00450 20-1065, looked up) Ceruloplasmin: KEKHYYIGIIETTWDYASDHGEKKLISVDTEHSNIYLQNGPDRIGRLYKKALYLQYTDETFRTTIEKPVWLGFLGPIIKAETGDKVYVHLKNLASRPYTFHSHGITYYKEHEGAIYPDNTTDFQRADDKVYPGEQYTYMLLATEEQSPGEGDGNCVTRIYHSHIDAPKDIASGLIGPLIICKKDSLDKEKEKHIDREFVVMFSVVDENFSWYLEDNIKTYCSEPEKVDKDNEDFQESNRMYSVNGYTFGSLPGLSMCAEDRVKWYLFGMGNEVDVHAAFFHGQALTNKNYRIDTINLFPATLFDAYMVAQNPGEWMLSCQNLNHLKAGLQAFFQVQECNKSSSKDNIRGKHVRHYYIAAEEIIWNYAPSGIDIFTKENLTAPGSDSAVFFEQGTTRIGGSYKKLVYREYTDASFTNRKERGPEEEHLGILGPVIWAEVGDTIRVTFHNKGAYPLSIEPIGVRFNKNNEGTYYSPNYNPQSRSVPPSASHVAPTETFTYEWTVPKEVGPTNADPVCLAKMYYSAVEPTKDIFTGLIGPMKICKKGSLHANGRQKDVDKEFYLFPTVFDENESLLLEDNIRMFTTAPDQVDKEDEDFQESNKMHSMNGFMYGNQPGLTMCKGDSVVWYLFSAGNEADVHGIYFSGNTYLWRGERRDTANLFPQTSLTLHMWPDTEGTFNVECLTTDHYTGGMKQKYTVNQCRRQSEDSTFYLGERTYYIAAVEVEWDYSPQREWEKELHHLQEQNVSNAFLDKGEFYIGSKYKKVVYRQYTDSTFRVPVERKAEEEHLGILGPQLHADVGDKVKIIFKNMATRPYSIHAHGVQTESSTVTPTLPGETLTYVWKIPERSGAGTEDSACIPWAYYSTVDQVKDLYSGLIGPLIVCRRPYLKVFNPRRKLEFALLFLVFDENESWYLDDNIKTYSDHPEKVNKDDEEFIESNKMHAINGRMFGNLQGLTMHVGDEVNWYLMGMGNEIDLHTVHFHGHSFQYKHRGVYSSDVFDIFPGTYQTLEMFPRTPGIWLLHCHVTDHIHAGMETTYTVLQNEDTKSG | bind | level of serum antibodies against the glycan in MBC patients compared to healthy individuals [1]: significantly higher levels

Source: patent publication US20080019968A1, “DETECTION, PREVENTION AND TREATMENT OF BREAST CANCER” (The scripps Reasearch Institute, priority 2004, published 2008)
